Data from patent publication US20170067894A1 (priority 2014, published 2017).
Like-named read-outs stand apart in the source and are kept apart here.

Experiments:
LuxR of Vibrio fischeri = LuxR of Vibrio fischeri (Aliivibrio fischeri, UniProt P12746, DEL21-21/INS42T/N22A/N23Y); type: cell-based; conditions: for induction of luminescence (LuxR activation) compared to 2-AA: 50 μM, 20 h of incubation, FIG. 10
[1] = tested on: LuxR-regulated luminescence of Vibrio fischeri MJ-1; type: cell-based

LuxR of Vibrio fischeri, sequence (P12746 with tags, fused parts or gaps DEL21-21/INS42T/N22A/N23Y): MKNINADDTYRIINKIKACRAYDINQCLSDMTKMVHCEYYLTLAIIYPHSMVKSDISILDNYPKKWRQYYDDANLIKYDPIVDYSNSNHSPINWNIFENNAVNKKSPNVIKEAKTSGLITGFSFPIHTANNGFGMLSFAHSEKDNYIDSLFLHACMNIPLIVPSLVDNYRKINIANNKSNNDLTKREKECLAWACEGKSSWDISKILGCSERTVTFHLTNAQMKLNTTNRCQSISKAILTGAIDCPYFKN

Structure (SMILES) | induction of luminescence (LuxR activation) compared to 2-AA (LuxR of Vibrio fischeri) | further results
Nc1ccccc1C=O [2-aminobenzaldehyde] | completely abolished the induction of luminescence | 
O=C(C[N+](=O)[O-])c1ccccc1 [2-nitroacetophenone] | could also activate LuxR, but to a lesser extent than 2-AA | dose dependency of LuxR activation (LuxR of Vibrio fischeri; 1-50 μM): no dose dependency; synergistic effects in the presence of AHL (LuxR of Vibrio fischeri; 1-50 μM): no dose dependency or synergistic effects in the presence of AHL were observed
CC(=O)c1cccc(N)c1 [3-aminoacetophenone] | completely abolished the induction of luminescence | 
CCCC(=O)CC(=O)N[C@H]1CCOC1=O [3-oxo-C6-HSL] |  | affinity towards LuxR relative to 2-AA (LuxR of Vibrio fischeri; as apparent from FIGS. 4 through 9): approximately three orders of magnitude higher; luminescence of V. fischeri MJ-1 ([1]; 10 nM, FIG. 6): significant increase; luminescence of V. fischeri MJ-1 ([1]; two repeats of the experiment (data not shown)): no luminescence was measured
CC(=O)c1ccc(N)cc1 [4-aminoacetophenone] | completely abolished the induction of luminescence | 
CC(=O)c1ccccc1 [acetophenone] | completely abolished the induction of luminescence | 
Nc1ccccc1C(=O)O [anthranilic acid] | completely abolished the induction of luminescence | 
COC(=O)c1ccccc1N [methyl anthranilate] | completely abolished the induction of luminescence | 
